Assay [1] deals with T1, 5-hydroxytryptamine receptor 3A (Homo sapiens, UniProt P46098).
T1 sequence (P46098 whole entry): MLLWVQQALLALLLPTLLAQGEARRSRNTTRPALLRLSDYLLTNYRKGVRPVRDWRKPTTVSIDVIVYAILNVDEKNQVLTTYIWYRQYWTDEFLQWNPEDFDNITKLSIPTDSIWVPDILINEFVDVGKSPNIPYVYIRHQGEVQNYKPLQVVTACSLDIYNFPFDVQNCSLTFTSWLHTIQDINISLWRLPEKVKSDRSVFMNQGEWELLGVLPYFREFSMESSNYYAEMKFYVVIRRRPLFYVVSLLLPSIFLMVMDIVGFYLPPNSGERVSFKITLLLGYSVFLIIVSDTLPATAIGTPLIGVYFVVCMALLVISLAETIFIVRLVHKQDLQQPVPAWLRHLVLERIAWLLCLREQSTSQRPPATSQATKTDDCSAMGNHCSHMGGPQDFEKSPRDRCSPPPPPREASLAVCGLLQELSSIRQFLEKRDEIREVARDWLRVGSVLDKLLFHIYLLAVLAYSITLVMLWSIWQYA
It counts as functional.

The target of assay [2] is Sodium-dependent noradrenaline transporter (Homo sapiens, UniProt P23975).
Assay [3] addresses Adenosine receptor A2a (Homo sapiens, UniProt P29274).
In assay [4] the target is T2, Endothelin-1 receptor (Homo sapiens, UniProt P25101).
T2 sequence (P25101 whole entry): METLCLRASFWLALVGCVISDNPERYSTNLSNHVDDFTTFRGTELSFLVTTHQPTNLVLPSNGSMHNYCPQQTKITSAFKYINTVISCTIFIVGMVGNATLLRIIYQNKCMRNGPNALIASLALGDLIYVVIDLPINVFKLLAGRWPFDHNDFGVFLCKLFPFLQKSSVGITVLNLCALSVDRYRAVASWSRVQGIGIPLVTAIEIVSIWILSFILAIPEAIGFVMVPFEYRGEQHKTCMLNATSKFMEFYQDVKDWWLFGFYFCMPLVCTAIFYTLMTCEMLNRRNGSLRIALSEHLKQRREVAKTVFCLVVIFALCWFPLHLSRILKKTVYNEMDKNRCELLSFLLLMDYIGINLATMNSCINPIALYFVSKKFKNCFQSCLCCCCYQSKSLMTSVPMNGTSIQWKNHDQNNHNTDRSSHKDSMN

In assay [5] the target is T3, Cholecystokinin receptor type A (Homo sapiens, UniProt P32238).
T3 sequence (P32238 whole entry): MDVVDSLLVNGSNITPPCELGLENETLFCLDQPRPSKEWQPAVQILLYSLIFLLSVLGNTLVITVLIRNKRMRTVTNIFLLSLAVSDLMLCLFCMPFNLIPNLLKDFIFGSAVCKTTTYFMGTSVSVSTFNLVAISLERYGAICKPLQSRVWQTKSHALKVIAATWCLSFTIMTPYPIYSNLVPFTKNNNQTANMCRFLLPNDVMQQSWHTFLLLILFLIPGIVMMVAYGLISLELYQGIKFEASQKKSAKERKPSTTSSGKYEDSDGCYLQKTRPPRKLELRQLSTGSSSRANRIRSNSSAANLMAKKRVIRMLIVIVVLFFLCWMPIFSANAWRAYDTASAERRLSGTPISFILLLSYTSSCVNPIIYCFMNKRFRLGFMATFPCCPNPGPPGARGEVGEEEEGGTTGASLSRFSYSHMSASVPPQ

Assay [6] concerns the target Cannabinoid receptor 1 (Homo sapiens, UniProt P21554). Format: functional, cell-based.
In assay [7] the target is T4, Alpha-1A adrenergic receptor (Homo sapiens, UniProt P35348).
T4 sequence (P35348 whole entry): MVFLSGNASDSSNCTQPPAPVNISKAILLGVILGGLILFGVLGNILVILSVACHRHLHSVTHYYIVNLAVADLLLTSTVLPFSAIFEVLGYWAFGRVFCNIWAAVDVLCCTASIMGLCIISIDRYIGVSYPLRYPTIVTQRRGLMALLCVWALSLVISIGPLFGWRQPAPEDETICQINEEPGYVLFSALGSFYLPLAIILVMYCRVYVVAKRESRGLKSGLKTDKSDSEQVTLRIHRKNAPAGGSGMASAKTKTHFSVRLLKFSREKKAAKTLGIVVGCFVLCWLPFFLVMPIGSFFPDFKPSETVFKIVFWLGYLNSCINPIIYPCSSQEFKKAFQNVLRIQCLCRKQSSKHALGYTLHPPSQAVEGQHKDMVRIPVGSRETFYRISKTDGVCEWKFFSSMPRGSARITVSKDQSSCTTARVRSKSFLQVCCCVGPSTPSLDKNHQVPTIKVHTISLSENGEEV
It counts as functional, cell-based.

Assay [8] deals with T5, Thromboxane A2 receptor (Homo sapiens, UniProt P21731).
T5 sequence (P21731 whole entry): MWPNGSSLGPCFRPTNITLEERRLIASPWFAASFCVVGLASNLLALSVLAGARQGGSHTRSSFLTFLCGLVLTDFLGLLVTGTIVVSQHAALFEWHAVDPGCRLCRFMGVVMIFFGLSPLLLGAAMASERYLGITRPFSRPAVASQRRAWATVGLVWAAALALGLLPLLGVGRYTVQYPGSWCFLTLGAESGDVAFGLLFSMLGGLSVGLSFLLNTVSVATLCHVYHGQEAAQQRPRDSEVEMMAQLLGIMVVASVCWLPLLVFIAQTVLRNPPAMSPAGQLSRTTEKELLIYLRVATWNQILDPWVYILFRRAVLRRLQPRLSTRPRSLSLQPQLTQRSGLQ

Bounds are passed on as bounds.
Also: assay procedure not described here.

Sodium-dependent noradrenaline transporter, sequence (P23975 whole entry): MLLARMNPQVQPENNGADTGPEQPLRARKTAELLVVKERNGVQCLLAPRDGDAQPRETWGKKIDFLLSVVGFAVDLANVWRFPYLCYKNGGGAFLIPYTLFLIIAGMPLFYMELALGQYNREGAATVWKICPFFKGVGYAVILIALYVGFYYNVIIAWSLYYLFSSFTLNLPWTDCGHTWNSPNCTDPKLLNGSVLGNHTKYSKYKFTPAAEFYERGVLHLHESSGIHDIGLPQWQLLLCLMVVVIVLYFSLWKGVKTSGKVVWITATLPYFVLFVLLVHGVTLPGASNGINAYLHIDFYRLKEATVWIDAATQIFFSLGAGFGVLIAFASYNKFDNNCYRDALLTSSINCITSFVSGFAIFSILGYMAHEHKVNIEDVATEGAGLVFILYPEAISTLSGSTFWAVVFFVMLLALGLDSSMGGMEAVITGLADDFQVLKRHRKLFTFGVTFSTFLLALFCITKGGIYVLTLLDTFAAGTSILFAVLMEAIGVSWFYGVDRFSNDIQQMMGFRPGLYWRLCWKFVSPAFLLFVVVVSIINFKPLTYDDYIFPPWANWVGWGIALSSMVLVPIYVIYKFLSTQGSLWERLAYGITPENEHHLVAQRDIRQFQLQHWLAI
Cannabinoid receptor 1, sequence (P21554 whole entry): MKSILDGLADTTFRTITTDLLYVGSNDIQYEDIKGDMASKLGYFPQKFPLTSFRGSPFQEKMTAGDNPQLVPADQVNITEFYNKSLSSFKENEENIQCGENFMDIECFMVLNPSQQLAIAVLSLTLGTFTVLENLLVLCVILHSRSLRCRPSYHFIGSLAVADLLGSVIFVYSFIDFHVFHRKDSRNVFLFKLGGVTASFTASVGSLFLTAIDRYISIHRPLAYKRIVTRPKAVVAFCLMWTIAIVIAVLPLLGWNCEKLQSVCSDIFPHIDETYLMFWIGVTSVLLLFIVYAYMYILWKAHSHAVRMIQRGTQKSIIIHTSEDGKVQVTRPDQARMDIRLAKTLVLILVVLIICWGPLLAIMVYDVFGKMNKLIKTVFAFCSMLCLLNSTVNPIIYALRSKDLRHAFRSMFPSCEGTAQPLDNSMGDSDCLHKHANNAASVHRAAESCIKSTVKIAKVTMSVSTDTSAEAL
Adenosine receptor A2a, sequence (P29274 whole entry): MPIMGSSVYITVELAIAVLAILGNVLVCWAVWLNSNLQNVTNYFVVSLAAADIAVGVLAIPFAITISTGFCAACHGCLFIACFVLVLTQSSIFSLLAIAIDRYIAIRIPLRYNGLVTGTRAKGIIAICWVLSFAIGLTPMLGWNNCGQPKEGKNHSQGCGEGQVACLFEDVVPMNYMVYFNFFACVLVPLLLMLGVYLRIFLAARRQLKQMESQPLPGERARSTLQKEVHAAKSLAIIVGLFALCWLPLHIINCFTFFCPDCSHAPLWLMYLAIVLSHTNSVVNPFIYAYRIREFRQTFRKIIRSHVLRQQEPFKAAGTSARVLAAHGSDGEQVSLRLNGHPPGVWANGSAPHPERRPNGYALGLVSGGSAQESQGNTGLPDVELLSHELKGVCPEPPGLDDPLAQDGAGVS

In the case of `CC(=N)N1CC[C@H](SC2=C(C(=O)O)N3C(=O)[C@H]([C@@H](C)O)[C@H]3C2)C1`, the AC50 (commonly the midpoint of the concentration-response curve, whichever way the signal moves) in assay [1] is over 300 µM; in assay [2], over 300 µM; in assay [3], 300 µM; in assay [4] it was over 300 µM; in assay [5], over 300 µM; in assay [6], over 300 µM. In assay [7], this compound registered an AC50 of over 300 µM.
With `CC1(C)S[C@@H]2[C@H](NC(=O)[C@H](N)c3ccc(O)cc3)C(=O)N2[C@H]1C(=O)O` [AMOXICILLIN], the AC50 in assay [1], in assay [2], in assay [3], in assay [8], in assay [4] and in assay [5] was over 30 µM in each case. For the same compound, in assay [7], the AC50 is over 30 µM.
Turning to `O=C1CN2Cc3c(ccc(Cl)c3Cl)N=C2N1` [ANAGRELIDE], the AC50 in assay [1], in assay [2], in assay [3], in assay [8], in assay [5] and in assay [6] was over 30 µM in each case. The same compound showed a half-maximal activity concentration (AC50) in assay [7] of over 30 µM.
As to `C=C(C)[C@@H]1CCC(C)=C[C@H]1c1c(O)cc(CCCCC)cc1O` [CANNABIDIOL], the AC50 is over 30 µM in assay [1]; 17.3 µM in assay [2]; over 30 µM in assay [3]; over 30 µM in assay [4]; 18.3 µM in assay [5]; over 10 µM in assay [7].
For `CO/N=C(\C(=O)N[C@@H]1C(=O)N2C(C(=O)O)=C(COC(N)=O)CS[C@H]12)c1ccco1` [CEFUROXIME], the concentration at half-maximal activity (AC50) in assay [1], in assay [2], in assay [3], in assay [4], in assay [5] and in assay [6] was over 30 µM in each case. This compound had a half-maximal activity concentration (AC50) in assay [7] of over 30 µM.
As to `[H]/N=C(\N/C(=N/[H])NCCCCCCNC(=N)NC(=N)Nc1ccc(Cl)cc1)Nc1ccc(Cl)cc1` [CHLORHEXIDINE], the half-maximal activity concentration (AC50) in assay [1] is 5.9 µM; in assay [2], 0.409 µM; in assay [3], over 30 µM; in assay [8], over 30 µM; in assay [5], 15.9 µM; in assay [6], over 30 µM. Besides, in assay [7], the AC50 was 0.6 µM.
For the compound `Clc1cccc(Cl)c1N=C1NCCN1` [CLONIDINE], the AC50 is over 30 µM in assay [1]; over 10 µM in assay [2]; over 30 µM in assay [3]; over 30 µM in assay [8]; over 30 µM in assay [4]; over 30 µM in assay [5]. In assay [6], the AC50 is over 30 µM.
As for `CN1C[C@H](C(=O)N[C@]2(C)O[C@@]3(O)[C@@H]4CCCN4C(=O)[C@H](Cc4ccccc4)N3C2=O)C[C@@H]2c3cccc4[nH]cc(c34)C[C@H]21` [DIHYDROERGOTAMINE], the half-maximal activity concentration (AC50) in assay [1] was over 30 µM; in assay [2], over 30 µM; in assay [3] it was over 30 µM; in assay [8], 13.7 µM; in assay [4], over 30 µM; in assay [5] it was over 30 µM. In assay [6], this compound showed a half-maximal activity concentration (AC50) of over 30 µM.
For the compound `CNCC[C@H](Oc1cccc2ccccc12)c1cccs1` [DULOXETINE], the AC50 in assay [1] is 14 µM; in assay [3] it was over 30 µM; in assay [8], over 30 µM; in assay [5], over 30 µM; in assay [6] it was over 30 µM.
Consider `CC1(C)O[C@@H]2C[C@H]3[C@@H]4C[C@H](F)C5=CC(=O)C=C[C@]5(C)[C@H]4[C@@H](O)C[C@]3(C)[C@]2(C(=O)CO)O1` [FLUNISOLIDE], for which the AC50 in assay [1], in assay [2], in assay [3], in assay [4], in assay [5] and in assay [6] was over 30 µM each time. This compound also registered an AC50 in assay [7] of 0.048 µM.
In the case of `CCC(=O)O[C@@H](O[P@](=O)(CCCCc1ccccc1)CC(=O)N1C[C@H](C2CCCCC2)C[C@H]1C(=O)O)C(C)C` [FOSINOPRIL], the half-maximal activity concentration (AC50) in assay [1], in assay [6] and in assay [7] was over 30 µM throughout.
`C[C@H]1Oc2cc(cnc2N)-c2c(nn(C)c2C#N)CN(C)C(=O)c2ccc(F)cc21` [LORLATINIB]: the AC50 in assay [1], in assay [2], in assay [3], in assay [4], in assay [5] and in assay [6] was over 30 µM throughout. For the same compound, the AC50 in assay [7] was over 30 µM.
On to `CC[C@@H](CO)NC(=O)[C@@H]1C=C2c3cccc4[nH]cc(c34)C[C@H]2N(C)C1` [METHYLERGONOVINE], for which the AC50 in assay [1], in assay [2], in assay [3], in assay [8], in assay [4] and in assay [5] was over 30 µM each time. The same compound had a half-maximal activity concentration (AC50) in assay [6] of over 30 µM.
In the case of `CNCCC=C1c2ccccc2CCc2ccccc21` [NORTRIPTYLINE], the AC50 is over 30 µM in assay [1]; over 30 µM in assay [3]; over 30 µM in assay [8]; over 30 µM in assay [4]; over 30 µM in assay [5]; 0.036 µM in assay [7].
Consider `CC(C)C[C@H](CN)CC(=O)O` [PREGABALIN], for which the AC50 in assay [1], in assay [2], in assay [3], in assay [8], in assay [4] and in assay [5] was over 30 µM in each case. The half-maximal activity concentration (AC50) in assay [6] is over 30 µM.
For `CNC(=O)c1cc(Oc2ccc(NC(=O)Nc3ccc(Cl)c(C(F)(F)F)c3)c(F)c2)ccn1` [REGORAFENIB], the AC50 in assay [2] is 21.9 µM; in assay [3] it was over 30 µM; in assay [7], over 30 µM.
Turning to `NC(=O)c1ncn([C@@H]2O[C@H](CO)[C@@H](O)[C@H]2O)n1` [RIBAVIRIN], the AC50 in assay [1] was over 30 µM; in assay [2] it was over 10 µM; in assay [3] it was over 10 µM; in assay [8], over 10 µM; in assay [5], over 10 µM; in assay [6], over 30 µM. This compound registered a concentration at half-maximal activity (AC50) in assay [7] of over 30 µM.
Regarding `CCCN(CCc1cccs1)[C@H]1CCc2c(O)cccc2C1` [ROTIGOTINE], the concentration at half-maximal activity (AC50) in assay [1] was over 30 µM; in assay [2], 5.1 µM; in assay [3], over 30 µM; in assay [4], over 30 µM; in assay [5] it was over 30 µM; in assay [6], over 30 µM.
For `CN1CCN(CCCN2c3ccccc3Sc3ccc(S(=O)(=O)N(C)C)cc32)CC1` [THIOPROPERAZINE], the AC50 in assay [1] is over 30 µM; in assay [6] it was over 30 µM; in assay [7], 1 µM.
